Data taken from patent publication US20120136066A1, “Glomerulonephritis Treatment” (AVEXXIN AS, priority 2009, published 2012).

Key:
IIA-sPLA2 = IIA-sPLA2 protein expression and secretion, Western blot of supernatants; format: cell-based, rat; settings: mesangial cells, IL-1β (1 nM), FIG. 2A
Method: (§1) Quiescent cells were stimulated with either DMEM (−), or IL-1β (1 nM) in the absence (−) or presence of AKH-217 (etOH), vehicle control. • (A) Supernatants were taken for protein precipitation and precipitated proteins were separated by SDS-PAGE and subjected to a Western blot analysis using a monoclonal antibody against rat sPLA2. […] Cells were taken for RNA extraction and subjected to quantitative PCR analysis of rat IIA-sPLA2 and 18 S RNA. ΔΔCt values were calculated and results are expressed as % of maximal IL-1β-stimulated response and are means±S.D. (n=3). • (C) Cells were transfected with the sPLA2 promoter construct plus a plasmid coding for the Renilla luciferase. After transfection, cells were stimulated for 24 h with vehicle (−), IL-1β (1 nM), or IL-1β plus 10 μM of AKH-217. sPLA2 promoter activity was calculated and results are expressed as relative luciferase units (RLU) and are means±S.D. (n=3).
(§2) It has been previously shown that the cytokine-induced PGE2 formation in mesangial cells involves both sPLA2 and cPLA2 activation (Pfeilschifter et al., 1993), we then investigated the effect of the inhibitors above on sPLA2 protein and mRNA expressions. […] This effect on sPLA2 mRNA expression was due to a reducing effect on gene transcription. This was shown by a luciferase reporter gene assay that reflected sPLA2 promoter activity.

IIA-sPLA2 mRNA = IIA-sPLA2 mRNA expression, quantitative PCR; format: cell-based, rat; settings: mesangial cells, IL-1β (1 nM), FIG. 2B
Method: as §1, §2

rat IIA-sPLA2 promoter = assay: sPLA2 promoter activity, luciferase reporter gene assay; format: cell-based; settings: IL-1β (1 nM), 24 h, 10 μM compound, FIG. 2C
Method: as §1
as §2, with “activity. […]” for “activity.”

[1] = tested on: rat renal mesangial cells; assay: cytokine-stimulated NO formation in mesangial cells (Griess Reaction assay); format: cell-based; settings: IL-1β (1 nM), FIG. 3
Method: Quiescent cells were stimulated with either DMEM (−), IL-1β (1 nM; +), in the absence or presence of the indicated concentrations of AKH-217, AVX002, or AACOCF3. Supernatants were collected and taken for nitric oxide (NO) quantification by using a Griess Reaction assay. Data are expressed as μM of NO in the supernatant and are means±S.D. (n=3).
(§3) To see whether this effect is due to altered gene transcription of iNOS, luciferase reporter gene assays were performed to measure iNOS promoter activity. A 4.5 kb fragment of the rat iNOS promoter was kindly provided by Dr. K. F. Beck (pharmazentrum frankfurt).

iNOS = iNOS protein expression, Western blot; format: cell-based, rat; settings: mesangial cells, IL-1β (1 nM), FIG. 4A
Method: (§4) Quiescent cells were stimulated with either vehicle (DMEM), IL-1β (1 nM), in the absence (−) or presence of the indicated concentrations (in μM) of AVX001 and AVX002. EtOH, vehicle control.(A) Cells were taken for protein extraction and equal amount of protein were separated by SDS-PAGE and subjected to a Western blot analysis using a polyclonal antibody against iNOS at a dilution of 1:2000. Data are representative of at least 3 independent experiments giving similar results. (B). Cells were taken for RNA extraction and subjected to quantitative PCR analysis of rat iNOS and 18 S RNA. ΔΔCt values were calculated and results are expressed as % of maximal IL-1β response and are means±S.D (n=3). • (C) Cells were transfected with the rat iNOS promoter construct plus a plasmid coding for the Renilla luciferase. After transfection, cells were stimulated with vehicle (−), IL-1β (1 nM), or IL-1β plus 10 μM of AVX001. iNOS promoter activity was calculated and results are expressed as relative luciferase units (RLU) and are means±S.D. (n=3).
as §3

rat iNOS promoter = assay: iNOS promoter activity, luciferase reporter gene assay; format: cell-based; settings: IL-1β (1 nM), 10 μM compound, FIG. 4C
Method: as §4, §3

mesangial cells = assay: [3H]thymidine incorporation in mesangial cells (proliferation); format: cell-based, rat; settings: 24 h; ATP 100 μM, insuline 100 ng/ml or IGF 50 ng/ml, FIGS. 5A and 5B
Method: Quiescent cells were stimulated for 24 h with vehicle (DMEM), or 100 μM of ATP in the absence (−) or presence of the indicated concentrations of AVX001 or AVX002, in the presence of [^3H]thymidine. • (B) Cells were stimulated for 24 h with insuline (100 ng/ml) or IGF (50 ng/ml) in the absence (−) or presence of 10 μM of AVX001 or AVX002, in the presence of [^3H]thymidine. Thymidine incorporated into DNA was determined and results are expressed as % of control and are means±S.D. (n=3). Glomerulonephritis is characterized in a first early phase by increased mesangial apoptosis which in a second phase is replaced by an opposite event, i.e. hyperproliferation of mesangial cells. Many previous studies have shown that quiescent mesangial cells in culture can re-enter the cell cycle when exposed to various growth factors, including PDGF, insulin, insulin-like growth factor (IGF), or extracellular nucleotides such as ATP and UTP. […] In the presence of either AKH217 or AVX002, agonist-stimulated [^3H]thymidine incorporation is reduced (FIGS. 5A and 5B). Similar data were also obtained when cells were stimulated with PDGF.

phospho-p65 (NFκB) = assay: NFκB activation, Western blot of phospho-p65; format: cell-based, rat; settings: IL-1β (2 nM) 30 min, 10 μM compound pretreated 2 h, FIG. 6
Method: Quiescent cells were stimulated for 30 min with either vehicle (DMEM), or IL-1β (2 nM) in the absence (−) or presence (+) of AVX001 or AVX002 (10 μM, pretreated 2 h). Thereafter, cell lysates were separated by SDS-PAGE and subjected to a Western blot analysis using a polyclonal antibody against phospho-p65 (NFκB) (upper panel), HuR as a loading control (middle panel), and IκB (lower panel). Data in FIG. 6A show duplicates of one representative experiments. FIGS. 6B and C show the densitometric evaluation of NFκB and IκB bands.
NFκB activation was measured by Western blot analyses by detecting the amount of phospho-p65 which represents the active transcription factor subunit.

| IL-1β-stimulated sPLA2 promoter activity (rat IIA-sPLA2 promoter) | IL-1β-stimulated iNOS promoter activity (rat iNOS promoter) | Compound | IIA-sPLA2 protein expression and secretion (IIA-sPLA2) | IIA-sPLA2 mRNA expression (IIA-sPLA2 mRNA) | IL-1β-stimulated NO formation [1] | protein expression of iNOS induced by IL-1β (iNOS) | agonist-stimulated [3H]thymidine incorporation (mesangial cells) | IL-1β-induced increase of phospho-p65 (phospho-p65 (NFκB)) |
| --- | --- | --- | --- | --- | --- | --- | --- | --- |
| completely reduced | completely lost | CC/C=C\C/C=C\C/C=C\C/C=C\CC/C=C/CSCC(=O)C(F)(F)F [AKH-217] | reduce | reduce | reduced in a dose-dependent manner | down-regulated | reduced | reduced |
| – | – | CC/C=C\C/C=C\C/C=C\C/C=C\C/C=C\CCSCC(=O)C(F)(F)F [AVX002] | – | – | reduced in a dose-dependent manner | down-regulated | reduced | – |
